Experiment [1] relates to Rolipram. Put plainly: Radioligand binding assay No. 270000. As to conditions: test substance 10 μM; rat.
Experiment [2] has as its target PAK2 (Homo sapiens (Human), UniProt Q13177). Kind of experiment: Kinase selectivity, Mobility shift assay. In kind it is biochemical. The essentials: (§1)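 Mobility shift, 5-pt, 5-fold dilution, top 10 μM final. Buffer: 50 mM HEPES pH 7.5, 10 mM MgCl2, 2 mM DTT, 0.0015% Brij-35, 10 mM MnCl2 where required. 10 min enzyme–compound preinc. RT; FAM peptide + ATP, 28 °C; EDTA stop; Caliper.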

The target in experiment [3] is NEK2 (Homo sapiens (Human), UniProt P51955). Put plainly: Kinase selectivity, Mobility shift assay. The class given is biochemical. The procedure, abridged: as §1
Chain of NEK2 (P51955 whole entry, species assumed): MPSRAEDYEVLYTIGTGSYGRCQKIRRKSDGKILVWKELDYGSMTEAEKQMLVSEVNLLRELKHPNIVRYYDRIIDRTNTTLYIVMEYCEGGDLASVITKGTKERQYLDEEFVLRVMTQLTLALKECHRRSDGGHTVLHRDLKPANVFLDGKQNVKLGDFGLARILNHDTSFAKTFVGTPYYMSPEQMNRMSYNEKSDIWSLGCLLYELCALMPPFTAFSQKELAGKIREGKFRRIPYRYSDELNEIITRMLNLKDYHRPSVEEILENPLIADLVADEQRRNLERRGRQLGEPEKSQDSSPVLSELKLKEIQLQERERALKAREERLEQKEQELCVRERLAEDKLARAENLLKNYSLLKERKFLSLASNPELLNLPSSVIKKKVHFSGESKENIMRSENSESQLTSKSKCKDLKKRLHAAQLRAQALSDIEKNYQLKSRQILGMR

As usually defined, the IC50 is the concentration that inhibits the measured activity by half.

Some results are limits rather than exact numbers.

Chain of PAK2 (Q13177 whole entry, species assumed): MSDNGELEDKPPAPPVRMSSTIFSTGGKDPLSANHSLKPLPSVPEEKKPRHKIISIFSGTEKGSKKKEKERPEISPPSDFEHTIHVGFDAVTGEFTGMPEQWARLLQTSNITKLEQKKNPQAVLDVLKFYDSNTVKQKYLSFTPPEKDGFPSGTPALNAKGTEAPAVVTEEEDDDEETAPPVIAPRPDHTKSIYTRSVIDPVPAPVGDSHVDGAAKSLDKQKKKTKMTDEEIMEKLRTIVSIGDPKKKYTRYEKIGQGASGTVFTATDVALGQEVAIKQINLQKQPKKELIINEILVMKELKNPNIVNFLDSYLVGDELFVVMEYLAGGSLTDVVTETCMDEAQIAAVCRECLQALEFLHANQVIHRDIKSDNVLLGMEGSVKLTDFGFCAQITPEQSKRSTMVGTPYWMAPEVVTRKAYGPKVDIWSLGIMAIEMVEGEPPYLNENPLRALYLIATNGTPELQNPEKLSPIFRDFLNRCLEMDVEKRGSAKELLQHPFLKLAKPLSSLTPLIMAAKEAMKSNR

As to `Nc1ccc(-c2ccc3ncc4c(=O)[nH]c(=O)n(-c5cccc(C(F)(F)F)c5)c4c3n2)cn1` [Compound 5, 9-(6-aminopyridin-3-yl)-1-(3-(trifluoromethyl)phenyl)pyrimido[5,4-c][1,5]naphthyridine-2,4(1H,3H)-dione], the “Inhibitory rate (%), Rolipram” value in experiment [1] stood at 20%. The IC50 in experiment [2] and in experiment [3] was more than 10000 nM throughout.
